Assay results reported in ChEMBL document CHEMBL3871263, “Arylthiosemicarbazones as antileishmanial agents” (Eur J Med Chem, 2016).

Key:
[1] = Cytotoxicity against human MRC5 cells assessed as reduction in cell growth measured after 72 hrs by MTT assay; type: toxicity, cell-based
[2] = Selectivity index, ratio of EC50 for human MRC5 cells to EC50 for intracellular Leishmania donovani MHOM/ET/67/HU3 amastigotes; type: toxicity, cell-based; conditions: read-out: Ratio EC50
[3] = Cytotoxicity against human THP1 cells assessed as reduction in cell growth measured after 72 hrs by MTT assay; type: toxicity, cell-based, THP-1
Leishmania donovani = experiment: Antileishmanial activity against intracellular amastigote stage of Leishmania donovani MHOM/ET/67/HU3 infected in human THP1 cells assessed as parasite growth measured after 72 hrs by luciferase reporter gene assay; type: functional, cell-based; conditions: MHOM/ET/67/HU3, THP-1, 72 h

Structure (SMILES) | EC50 at 72 h [1] [µM] | selectivity ratio [2] | EC50 at 72 h [3] [µM] | EC50 (Leishmania donovani) [µM]
COc1ccc2c(OC)ccc(/C=N/NC(N)=S)c2c1 | > 200 | > 20 | > 200 | 9
COCOc1c(/C=N/NC(N)=S)ccc2ccccc12 | 119 | 17.5 | 56 | 6.8
COc1ccc(/C=N/NC(N)=S)c2ccccc12 | 42 | 8.4 | 47 | 5
Cn1cc(/C=N/NC(N)=S)c2ccccc21 | > 200 |  | > 200 | > 10
NC(=S)N/N=C/c1c2ccccc2cc2ccccc12 | 45 | 8.5 | 67 | 5.3
CCCCOc1ccc2cc(/C=N/NC(N)=S)ccc2c1 | 43 | 33.2 | 36 | 1.27
NC(=S)N/N=C/c1ccc(F)c2ccccc12 | > 200 | > 250 | 39 | 0.8
Cn1ccc2cc(/C=N/NC(N)=S)ccc21 | > 200 |  | > 200 | > 10
CCCCn1cc(/C=N/NC(N)=S)c2cccc(C)c21 | 31 | 3.4 | > 200 | 9
NC(=S)N/N=C/c1cn(CC2CCCCC2)c2ccccc12 | 26 | 2.8 | 27 | 9
NC(=S)N/N=C/c1ccc(OCC2CCCCC2)c2ccccc12 | 28.9 | 13.1 | 150 | 2.2
Cc1cccc(Cn2cc(/C=N/NC(N)=S)c3ccccc32)c1 | 23 | 5.3 | 32 | 4.3
COCOc1ccc(/C=N/NC(N)=S)c2ccccc12 | 126 |  | > 200 | > 10
NC(=S)N/N=C/c1c(OCc2ccccc2)ccc2ccccc12 | 30 | 3.7 | 39 | 8.1
CCCCOc1ccc(/C=N/NC(N)=S)c2ccccc12 | 41 | 19.5 | > 200 | 2.1
NC(=S)N/N=C/c1cc2ccccc2c2ccccc12 | 192 |  | > 200 | > 10
CN(C)c1ccc(/C=N/N=C(/N)S)c2ccccc12 | > 200 | > 30 | > 200 | 6.5

Structure (SMILES) | EC50 at 72 h [1] [µM] | selectivity ratio [2] | EC50 at 72 h [3] [µM] | EC50 (Leishmania donovani) [µM]
CCOc1ccc2cc(/C=N/NC(N)=S)ccc2c1 | > 200 | > 40 | 30 | 5.4
COc1ccc2ccccc2c1/C=N/N=C(/N)S | 126 |  | 109 | > 10
Cc1ccc(/C=N/NC(N)=S)c2ccccc12 | 37 | 30.4 | 32 | 1.2
CCOc1ccc(/C=N/NC(N)=S)c2ccccc12 | > 200 | > 30 | > 200 | 7.2
NC(=S)N/N=C/c1c(OCC2CCCCC2)ccc2ccccc12 | 33 |  | 28 | > 10
Cn1c(/C=N/N=C(/N)S)cc2ccccc21 | > 200 |  | > 200 | > 10
NC(=S)N/N=C/c1cn(CCCc2ccccc2)c2ccccc12 | > 200 | > 50 | 30 | 4.1
NC(=S)N/N=C/c1ccc2ccccc2c1OCc1ccccc1 | 25 | 9.7 | 28 | 2.6
COc1ccc2cc(/C=N/NC(N)=S)ccc2c1 | > 250 | > 20 | 108 | 9.3
NC(=S)N/N=C/c1ccc2cc(OCc3ccccc3)ccc2c1 | 27 | 22.6 | 28 | 1.2
C[C@@H]1[C@H](O)[C@@H](C)/C=C/C=C/C=C/C=C/C=C/C=C/C=C/[C@H](O[C@@H]2O[C@H](C)[C@@H](O)[C@H](N)[C@@H]2O)C[C@@H]2O[C@](O)(C[C@@H](O)C[C@@H](O)[C@H](O)CC[C@@H](O)C[C@@H](O)CC(=O)O[C@H]1C)C[C@H](O)[C@H]2C(=O)O [AMPHOTERICIN B] | 23 |  | 38 | 
NC(=S)N/N=C/c1cn(Cc2ccccc2)c2ccccc12 | 175 |  | 28 | > 10
CCCCOc1c(/C=N/NC(N)=S)ccc2ccccc12 | 86 | 61.5 | > 200 | 1.4
COCOc1ccc2cc(/C=N/NC(N)=S)ccc2c1 | 175 |  | > 200 | > 10
NC(=S)N/N=C/c1ccc(-c2ccc(/C=N/NC(N)=S)cc2)cc1 | > 200 |  | > 200 | > 10
NC(=S)N/N=C/c1ccc(OCc2ccccc2)c2ccccc12 | 29 | 15.2 | 27 | 1.9
